Experimental data taken from patent publication US7880007B2, “Bicyclic substituted phenyl piperidine modulators of muscarinic receptors” (Vertex Pharmaceuticals Incorporated, priority 2004, dated 2011).

Columns and labels:
Type in all cases: cell-based
M1 muscarinic receptor = target: T1, M1 muscarinic receptor (Homo sapiens, UniProt P11229); experiment: Functional mobilization of intracellular calcium (FLIPR), M1-CHO cells; conditions: for Emax / M1 Efficacy: 100% efficacy = maximum response obtained with the Carbachol control; for M1 Activity: M1-CHO cells, calcium mobilization (FLIPR)
T1 construct: expressed in transfected cells; host or cells: CHO (M1-CHO)
T1 sequence (P11229 1-460): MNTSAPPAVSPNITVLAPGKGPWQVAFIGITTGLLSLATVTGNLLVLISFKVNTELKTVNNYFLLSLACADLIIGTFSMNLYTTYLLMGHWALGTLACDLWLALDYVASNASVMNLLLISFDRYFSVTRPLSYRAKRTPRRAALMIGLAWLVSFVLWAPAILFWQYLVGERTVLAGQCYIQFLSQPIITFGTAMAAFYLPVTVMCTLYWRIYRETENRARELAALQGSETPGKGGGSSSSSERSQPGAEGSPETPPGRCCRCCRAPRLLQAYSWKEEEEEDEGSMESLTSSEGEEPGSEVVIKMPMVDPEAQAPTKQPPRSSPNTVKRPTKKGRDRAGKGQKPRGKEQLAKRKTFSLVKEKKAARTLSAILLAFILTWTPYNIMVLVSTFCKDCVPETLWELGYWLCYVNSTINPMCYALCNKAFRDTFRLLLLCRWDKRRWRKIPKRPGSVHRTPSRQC
How it was run: (§1)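 Calcium mobilisation read by FLIPR over 60 s (ex 488/em 540 nm) in recombinant muscarinic CHO lines loaded with calcium dye plus 1 mM probenecid. Compounds tested as agonists alone, or as inhibitors against EC80 carbachol after 15 min pre-incubation or co-addition; 0.5% DMSO; efficacy scaled to carbachol maximal response.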

M2 muscarinic receptor = target: T2, M2 muscarinic receptor (Homo sapiens, UniProt P08172); experiment: Functional mobilization of intracellular calcium (FLIPR), M2-CHO cells; conditions: for Emax / M2 Efficacy: 100% efficacy = maximum response obtained with the Carbachol control; for M2 Activity: M2-CHO cells, calcium mobilization (FLIPR)
T2 construct: expressed in transfected cells; host or cells: CHO (M2-CHO)
T2 sequence (P08172 1-466): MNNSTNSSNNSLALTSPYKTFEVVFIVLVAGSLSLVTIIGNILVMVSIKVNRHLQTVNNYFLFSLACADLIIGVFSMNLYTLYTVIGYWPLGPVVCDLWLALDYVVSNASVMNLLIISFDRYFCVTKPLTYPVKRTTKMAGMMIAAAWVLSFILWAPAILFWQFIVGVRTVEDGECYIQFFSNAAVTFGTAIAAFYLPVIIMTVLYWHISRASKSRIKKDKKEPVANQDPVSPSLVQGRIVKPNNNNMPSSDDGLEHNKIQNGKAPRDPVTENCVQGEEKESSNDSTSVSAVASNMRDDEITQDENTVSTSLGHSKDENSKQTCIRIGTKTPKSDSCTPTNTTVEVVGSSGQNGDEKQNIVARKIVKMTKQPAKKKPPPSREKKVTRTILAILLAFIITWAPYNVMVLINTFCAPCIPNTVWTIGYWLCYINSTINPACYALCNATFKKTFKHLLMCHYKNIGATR
How it was run: as §1

M3 muscarinic receptor = target: T3, M3 muscarinic receptor (Homo sapiens, UniProt P20309); experiment: Functional mobilization of intracellular calcium (FLIPR), M3-CHO cells; conditions: for Emax / M3 Efficacy: 100% efficacy = maximum response obtained with the Carbachol control; for M3 Activity: M3-CHO cells, calcium mobilization (FLIPR)
T3 construct: expressed in transfected cells; host or cells: CHO (M3-CHO)
T3 sequence (P20309 whole entry): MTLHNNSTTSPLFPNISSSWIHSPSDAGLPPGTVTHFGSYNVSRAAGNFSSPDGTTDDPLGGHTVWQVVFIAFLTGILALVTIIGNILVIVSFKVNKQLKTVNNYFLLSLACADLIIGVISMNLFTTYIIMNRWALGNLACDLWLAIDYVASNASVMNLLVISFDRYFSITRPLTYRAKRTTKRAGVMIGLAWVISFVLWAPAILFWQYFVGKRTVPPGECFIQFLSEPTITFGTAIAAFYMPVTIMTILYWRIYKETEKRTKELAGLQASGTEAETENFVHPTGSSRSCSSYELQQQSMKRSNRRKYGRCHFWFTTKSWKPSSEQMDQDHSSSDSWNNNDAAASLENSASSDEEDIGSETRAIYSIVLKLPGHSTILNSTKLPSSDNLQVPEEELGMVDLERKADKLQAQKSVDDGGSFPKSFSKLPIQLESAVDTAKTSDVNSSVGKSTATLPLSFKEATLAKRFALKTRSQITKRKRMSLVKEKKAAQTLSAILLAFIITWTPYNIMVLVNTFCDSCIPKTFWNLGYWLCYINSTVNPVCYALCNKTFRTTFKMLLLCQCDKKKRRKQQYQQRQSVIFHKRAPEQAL
How it was run: as §1

M4 muscarinic receptor = target: T4, M4 muscarinic receptor (Homo sapiens, UniProt P08173); experiment: Functional mobilization of intracellular calcium (FLIPR), M4-CHO cells; conditions: for Emax / M4 Efficacy: 100% efficacy = maximum response obtained with the Carbachol control; for M4 Activity: M4-CHO cells, calcium mobilization (FLIPR)
T4 construct: expressed in transfected cells; host or cells: CHO (M4-CHO)
T4 sequence (P08173 1-479): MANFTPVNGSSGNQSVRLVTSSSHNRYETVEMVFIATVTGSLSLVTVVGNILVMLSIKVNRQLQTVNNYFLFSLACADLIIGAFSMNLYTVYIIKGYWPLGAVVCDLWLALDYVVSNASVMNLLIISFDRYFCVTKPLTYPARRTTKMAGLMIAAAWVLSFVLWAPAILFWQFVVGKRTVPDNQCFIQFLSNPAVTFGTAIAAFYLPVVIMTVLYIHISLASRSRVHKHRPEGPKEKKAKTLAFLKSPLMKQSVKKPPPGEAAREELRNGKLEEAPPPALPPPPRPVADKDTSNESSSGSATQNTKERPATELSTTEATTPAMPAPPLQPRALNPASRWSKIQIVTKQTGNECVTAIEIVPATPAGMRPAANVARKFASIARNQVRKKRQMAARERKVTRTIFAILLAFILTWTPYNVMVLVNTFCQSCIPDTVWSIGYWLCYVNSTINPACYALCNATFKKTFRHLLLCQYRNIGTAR
How it was run: as §1

| Emax (M1 muscarinic receptor) [%] | Emax (M2 muscarinic receptor) [%] | Emax (M3 muscarinic receptor) [%] | Emax (M4 muscarinic receptor) [%] | Structure (SMILES) | M1 Activity (M1 muscarinic receptor) | M2 Activity (M2 muscarinic receptor) | M3 Activity (M3 muscarinic receptor) | M4 Activity (M4 muscarinic receptor) | M1 Efficacy (M1 muscarinic receptor) | M2 Efficacy (M2 muscarinic receptor) | M3 Efficacy (M3 muscarinic receptor) | M4 Efficacy (M4 muscarinic receptor) |
| --- | --- | --- | --- | --- | --- | --- | --- | --- | --- | --- | --- | --- |
| 25 to 100 | < 25 | < 25 | 25 to 100 | CCOC(=O)N1CCC(CN2CCC(c3ccc(F)cc3OC)CC2)CC1 [Compound 364] | +++ (activity was measured to be less than 1.0 μM) | + (activity was measured to be greater than 5.0 μM) | + (activity was measured to be greater than 5.0 μM) | +++ (activity was measured to be less than 1.0 μM) | – | – | – | – |
| 25 to 100 | 25 to 100 | < 25 | 25 to 100 | CCCC1CCC(N2CCC(F)(c3cc(Cl)ccc3OC)CC2)CC1 (stereo not shown) [Compound 365] | + (activity was measured to be greater than 5.0 μM) | + (activity was measured to be greater than 5.0 μM) | + (activity was measured to be greater than 5.0 μM) | + (activity was measured to be greater than 5.0 μM) | – | – | – | – |
| < 25 | < 25 | < 25 | 25 to 100 | COc1ccc(-c2cccc(F)c2)cc1C1CCN([C@H]2C[C@H]3CC[C@H]2C3)CC1 [Compound 366] | + (activity was measured to be greater than 5.0 μM) | + (activity was measured to be greater than 5.0 μM) | + (activity was measured to be greater than 5.0 μM) | + (activity was measured to be greater than 5.0 μM) | – | – | – | – |
| < 25 | < 25 | < 25 | < 25 | COc1ccc(Cl)cc1C1(F)CCN([C@H]2C[C@H]3CC[C@H]2C3)CC1 [Compound 367] | + (activity was measured to be greater than 5.0 μM) | + (activity was measured to be greater than 5.0 μM) | + (activity was measured to be greater than 5.0 μM) | + (activity was measured to be greater than 5.0 μM) | – | – | – | – |

Continued, compound first:

| Structure (SMILES) | Emax (M1 muscarinic receptor) [%] | Emax (M2 muscarinic receptor) [%] | Emax (M3 muscarinic receptor) [%] | Emax (M4 muscarinic receptor) [%] | M1 Activity (M1 muscarinic receptor) | M2 Activity (M2 muscarinic receptor) | M3 Activity (M3 muscarinic receptor) | M4 Activity (M4 muscarinic receptor) | M1 Efficacy (M1 muscarinic receptor) | M2 Efficacy (M2 muscarinic receptor) | M3 Efficacy (M3 muscarinic receptor) | M4 Efficacy (M4 muscarinic receptor) |
| --- | --- | --- | --- | --- | --- | --- | --- | --- | --- | --- | --- | --- |
| COc1ccc(F)cc1C1CCN([C@@H]2C[C@H]3CC[C@H]2C3)CC1 [Compound 354] | 25 to 100 | 25 to 100 | < 25 | 25 to 100 | +++ (activity was measured to be less than 1.0 μM) | ++ (activity was measured to be from 1.0 μM to 5.0 μM) | + (activity was measured to be greater than 5.0 μM) | +++ (activity was measured to be less than 1.0 μM) | – | – | – | – |
| CCOC(=O)N1C2CCC1CC(N1CCC(c3ccccc3OC(F)(F)F)CC1)C2 (stereo not shown) [Compound 355] | 25 to 100 | < 25 | < 25 | 25 to 100 | +++ (activity was measured to be less than 1.0 μM) | + (activity was measured to be greater than 5.0 μM) | + (activity was measured to be greater than 5.0 μM) | +++ (activity was measured to be less than 1.0 μM) | – | – | – | – |
| COc1ccc(Cl)cc1C1(F)CCN(C2CC3CCC(C3)C2)CC1 (stereo not shown) [Compound 356] | 25 to 100 | 25 to 100 | < 25 | 25 to 100 | + (activity was measured to be greater than 5.0 μM) | + (activity was measured to be greater than 5.0 μM) | + (activity was measured to be greater than 5.0 μM) | +++ (activity was measured to be less than 1.0 μM) | – | – | – | – |
| COc1ccc(-c2ccc(S(C)(=O)=O)cc2)cc1C1CCN(C2CCOCC2)CC1 [Compound 357] | < 25 | < 25 | < 25 | < 25 | + (activity was measured to be greater than 5.0 μM) | + (activity was measured to be greater than 5.0 μM) | + (activity was measured to be greater than 5.0 μM) | + (activity was measured to be greater than 5.0 μM) | – | – | – | – |
| Cc1ccc(C(F)(F)F)cc1C1CCN(C2CCOCC2)CC1 [Compound 358] | 25 to 100 | 25 to 100 | < 25 | 25 to 100 | ++ (activity was measured to be from 1.0 μM to 5.0 μM) | + (activity was measured to be greater than 5.0 μM) | + (activity was measured to be greater than 5.0 μM) | ++ (activity was measured to be from 1.0 μM to 5.0 μM) | – | – | – | – |
| COc1ccc(-c2ccc(C(=O)N(C)C)cc2)cc1C1CCN([C@H]2C[C@H]3CC[C@H]2C3)CC1 [Compound 360] | < 25 | < 25 | < 25 | 25 to 100 | + (activity was measured to be greater than 5.0 μM) | + (activity was measured to be greater than 5.0 μM) | + (activity was measured to be greater than 5.0 μM) | ++ (activity was measured to be from 1.0 μM to 5.0 μM) | – | – | – | – |
| COc1ccc(-c2ccc(C(C)(C)C#N)cc2)cc1C1CCN(C2CC3CCC(C3)C2)CC1 (stereo not shown) [Compound 361] | 25 to 100 | < 25 | < 25 | 25 to 100 | + (activity was measured to be greater than 5.0 μM) | + (activity was measured to be greater than 5.0 μM) | + (activity was measured to be greater than 5.0 μM) | + (activity was measured to be greater than 5.0 μM) | – | – | – | – |
| CCCON=C1CCC(N2CCC(c3cc(Cl)ccc3OC)CC2)CC1 (stereo not shown) [Compound 362] | – | – | – | – | +++ (activity was measured to be less than 1.0 μM) | ++ (activity was measured to be from 1.0 μM to 5.0 μM) | + (activity was measured to be greater than 5.0 μM) | +++ (activity was measured to be less than 1.0 μM) | ++ (efficacy was calculated to be from 100% to 25%) | ++ (efficacy was calculated to be from 100% to 25%) | + (efficacy was calculated to be less than 25%) | ++ (efficacy was calculated to be from 100% to 25%) |
| CCOC(=O)N1[C@@H]2CC[C@@H]1CC(N1CCC(c3cc(C)ccc3OC)CC1)C2 (stereo partly shown) [Compound 363] | 25 to 100 | 25 to 100 | 25 to 100 | 25 to 100 | +++ (activity was measured to be less than 1.0 μM) | +++ (activity was measured to be less than 1.0 μM) | + (activity was measured to be greater than 5.0 μM) | +++ (activity was measured to be less than 1.0 μM) | – | – | – | – |
| CCOC(=O)N1CCC(N2CCC(F)(c3cc(Cl)ccc3OC)CC2)CC1 [Compound 368] | – | – | – | – | ++ (activity was measured to be from 1.0 μM to 5.0 μM) | ++ (activity was measured to be from 1.0 μM to 5.0 μM) | + (activity was measured to be greater than 5.0 μM) | +++ (activity was measured to be less than 1.0 μM) | ++ (efficacy was calculated to be from 100% to 25%) | ++ (efficacy was calculated to be from 100% to 25%) | + (efficacy was calculated to be less than 25%) | ++ (efficacy was calculated to be from 100% to 25%) |
